In US11554182B2, “Macrocyclic complexes of alpha-emitting radionuclides and their use in targeted radiotherapy of cancer” (CORNELL UNIVERSITY, priority 2017, dated 2023):

Experiment: In vivo biodistribution of ^225Ac complexes after intravenous injection
Parameters: species or system C57BL/6 mice
Procedure: In Vivo Biodistribution of ^225Ac Complexes of Macropa and DOTA. All experiments were approved by the Institutional Animal Care Committee (IACC) of the University of British Columbia and were performed in accordance with the Canadian Council on Animal Care Guidelines. A total of 9 female C57BL/6 mice (6-8 weeks old, 20-25 g) were used for the biodistribution study of each radiometal complex, n=3 for each time point.
Macropa (100 μL of a 1 mg/mL solution in NH4OAc) was diluted with 387 μL of NH4OAc (1 M, pH 7), and an aliquot (203 μL) of ^225Ac(NO3)3 (˜157 kBq) was then added; the pH of this solution was adjusted to 6.5-7 by the addition of 1 M NaOH (210 μL, trace metal grade). After 5 min at ambient temperature, the reaction solution was analyzed by TLC (0.4 M pH 4 sodium citrate as the eluent), which confirmed >95% radiochemical yield. The reaction was allowed to proceed overnight, and the radiochemical yield was again confirmed to be >95% the following morning. At this time, mice were anesthetized by 2% isoflurane, and approximately 100 μL (10-15 kBq) of the [^225Ac(macropa)]^+ complex were injected into the tail vein of each mouse. After injection, mice were allowed to recover and roam freely in their cages, and were euthanized by CO2 inhalation at 15 min, 1 h, or 5 h (n=3 at each time point) post-injection. Blood was collected by cardiac puncture and placed into an appropriate test tube for scintillation counting. Tissues collected included heart, liver, kidneys, lungs, small intestine, large intestine, brain, bladder, spleen, stomach, pancreas, bone, thyroid, tail, urine, and feces. Tissues were weighed and then counted with a calibrated gamma counter (Packard, Cobra II model 5002) using three energy windows: 60-120 keV (window A), 180-260 keV (window B), and 400-480 keV (window C). Counting was performed both immediately after sacrifice and after 7 days; counts were decay corrected from the time of injection and then converted to the percentage of injected dose (% ID) per gram of tissue (% ID/g). No differences were noted between the data; therefore, the biodistributions are reported using the data acquired immediately using window A.
The biodistribution studies of [^225Ac(DOTA)]^− and ^225Ac(NO3)3 were carried out as described above for [^225Ac(macropa)]^+, with the following modifications. [^225Ac(DOTA)]^− was prepared by adding ^225Ac(NO3)3 (338 μL, 1.1 MBq) to a solution of DOTA (100 μg, 20 mg/mL in H2O) in NH4OAc (467 μL, 0.15 M, pH 7). The pH of the solution was adjusted to 7 using NH4OAc (150 μL, 1 M, pH 7) and the solution was heated at 85° C. for 45 min. RCY>99% was confirmed by TLC as described above. [^225Ac(DOTA)]^− was diluted with saline to a final concentration of 0.05 MBq/100 μL, and 100 μL were injected into each mouse. ^225Ac(NO3)3 (˜58 μL, 0.4 MBq) was diluted and injected in the same manner as [^225Ac(DOTA)]^−. One mouse that was to be euthanized at the 5 h time point in the [^225Ac(DOTA)]^− study died shortly after injection. In the same manner, one mouse that was to be euthanized at the 1 h time point in the ^225Ac(NO3)3 study died.
The in vivo stability [^225Ac(macropa)]^+ was examined by comparing its biodistribution to those of ^225Ac(NO3)3 and [^225Ac(DOTA)]^−. C57BL/6 mice were injected via tail vein with 10-50 kBq of each radiometal complex and were sacrificed after 15 min, 1 h, or 5 h. The amount of ^225Ac retained in each organ was quantified by gamma counting and reported as the percent of injected dose per gram of tissue (% ID/g). The results of these studies are compiled in Tables 1-3. Inadequate stability of an ^225Ac complex leading to the loss of radioisotope in vivo is manifested by the accumulation of ^225Ac in the liver, spleen, and bone of mice.^[11,12,32] […] The biodistribution profile of [^225Ac(macropa)]^+ (FIG. 3B) differs markedly from that of ^225Ac(NO3)3. […]

[1] = 1 h after i.v. injection, energy window B (180-260 keV)
[2] = 1 h after i.v. injection, energy window C (400-480 keV)
[3] = 5 h after i.v. injection, energy window A (60-120 keV)
[4] = 5 h after i.v. injection, energy window B (180-260 keV)
[5] = 5 h after i.v. injection, energy window C (400-480 keV)
[6] = i.v. injection, C57BL/6 mice, up to 5 h

O=[N+]([O-])[O-].O=[N+]([O-])[O-].O=[N+]([O-])[O-].[225Ac] [^225Ac(NO3)3]
% ID/g in lungs [1]: 8.4426 % ID/g | % ID/g in pancreas [1]: 2.1579 % ID/g | % ID/g in small intestines [1]: 1.5192 % ID/g | % ID/g in spleen [1]: 37.1540 % ID/g | % ID/g in stomach [1]: 1.5867 % ID/g | % ID/g in tail [1]: 6.4201 % ID/g | % ID/g in thyroids [1]: 5.7426 % ID/g | % ID/g in urine [1]: 7.0564 % ID/g | % ID/g in bladder [2]: 2.2929 % ID/g | % ID/g in blood [2]: 11.3736 % ID/g | % ID/g in bone (femur + joint) [2]: 2.7213 % ID/g | % ID/g in brain [2]: 0.4402 % ID/g | % ID/g in feces [2]: 0.1122 % ID/g | % ID/g in heart [2]: 3.3464 % ID/g | % ID/g in kidneys [2]: 6.2070 % ID/g | % ID/g in large intestines [2]: 0.4366 % ID/g | % ID/g in liver [2]: 23.6180 % ID/g | % ID/g in lungs [2]: 5.2078 % ID/g | % ID/g in pancreas [2]: 1.8508 % ID/g | % ID/g in small intestines [2]: 3.5548 % ID/g | % ID/g in spleen [2]: 38.1082 % ID/g | % ID/g in stomach [2]: 2.3350 % ID/g | % ID/g in tail [2]: 9.0877 % ID/g | % ID/g in thyroids [2]: 0.0000 % ID/g | % ID/g in urine [2]: 104.9103 % ID/g | % ID/g in bladder [3]: 1.4947 % ID/g | % ID/g in blood [3]: 1.9886 % ID/g | % ID/g in bone (femur + joint) [3]: 3.5460 % ID/g | % ID/g in brain [3]: 0.0452 % ID/g | % ID/g in feces [3]: 0.9445 % ID/g | % ID/g in heart [3]: 1.3450 % ID/g | % ID/g in kidneys [3]: 4.6910 % ID/g | % ID/g in large intestines [3]: 0.6479 % ID/g | % ID/g in liver [3]: 59.8156 % ID/g | % ID/g in lungs [3]: 4.1871 % ID/g | % ID/g in pancreas [3]: 0.4874 % ID/g | % ID/g in small intestines [3]: 1.3704 % ID/g | % ID/g in spleen [3]: 62.9614 % ID/g | % ID/g in stomach [3]: 2.6131 % ID/g | % ID/g in tail [3]: 23.4055 % ID/g | % ID/g in thyroids [3]: -2.7052 % ID/g | % ID/g in urine [3]: 4.8267 % ID/g | % ID/g in bladder [4]: 1.5234 % ID/g | % ID/g in blood [4]: 2.0018 % ID/g | % ID/g in bone (femur + joint) [4]: 3.8533 % ID/g | % ID/g in brain [4]: 0.0290 % ID/g | % ID/g in feces [4]: 1.0201 % ID/g | % ID/g in heart [4]: 1.3948 % ID/g | % ID/g in kidneys [4]: 3.8752 % ID/g | % ID/g in large intestines [4]: 0.6744 % ID/g | % ID/g in liver [4]: 62.0765 % ID/g | % ID/g in lungs [4]: 4.3379 % ID/g | % ID/g in pancreas [4]: 0.4455 % ID/g | % ID/g in small intestines [4]: 1.2201 % ID/g | % ID/g in spleen [4]: 65.9117 % ID/g | % ID/g in stomach [4]: 2.5322 % ID/g | % ID/g in tail [4]: 25.4744 % ID/g | % ID/g in thyroids [4]: −4.6044 % ID/g | % ID/g in urine [4]: 3.3142 % ID/g | % ID/g in bladder [5]: 3.4975 % ID/g | % ID/g in blood [5]: 2.1769 % ID/g | % ID/g in bone (femur + joint) [5]: 3.5851 % ID/g | % ID/g in brain [5]: 0.0430 % ID/g | % ID/g in feces [5]: 0.8535 % ID/g | % ID/g in heart [5]: 1.2018 % ID/g | % ID/g in kidneys [5]: 4.2061 % ID/g | % ID/g in large intestines [5]: 1.0259 % ID/g | % ID/g in liver [5]: 54.1727 % ID/g | % ID/g in lungs [5]: 5.4923 % ID/g | % ID/g in pancreas [5]: 0.4643 % ID/g | % ID/g in small intestines [5]: 1.2922 % ID/g | % ID/g in spleen [5]: 62.2357 % ID/g | % ID/g in stomach [5]: 2.0358 % ID/g | % ID/g in tail [5]: 28.4443 % ID/g | % ID/g in thyroids [5]: -0.4455 % ID/g | % ID/g in urine [5]: 5.8548 % ID/g | clearance from blood / mice (in words) [6]: slow blood clearance and excretion | organ accumulation (in words) [6]: large accumulation in the liver and spleen
